Target: Recombinant human ATX (Homo sapiens (Human), UniProt Q13822)
Assay: ATX inhibition assay (choline release, Amplex Red fluorescence)
Format: biochemical
Conditions: ATX 10 nM, LPC 18:1 10 μM, 37° C., 20 min pre-incubation; mean of n≧2
Description: Reagents—LPC (oleoyl (18:1)) was purchased from Avanti Polar Lipids (Alabaster, Ala.) and solubilized in methanol to 20 mM. Amplex Red was obtained from Invitrogen Life Technologies (Paisley, UK) and dissolved in DMSO to 10 mM. Choline oxidase and horseradish peroxidase (HRP) were obtained from Sigma Aldrich (Dorset, UK) and dissolved in HBSS to 20 U/ml and 200 U/ml respectively. All reagents were stored at −20° C. in single use aliquots. All experimental measurements were performed in assay buffer made up immediately prior to use (HBSS, 0.01% BSA essentially fatty acid free).
PerkinElmer EnVision (Fluorescence Intensity/Absorbance Monochromator) or Tecan Infinite 200 PRO series plate reader was used to detect change in fluorescent intensity.
Assessing ATX inhibition—ATX activity was determined by measurement of released choline in reactions containing ATX (10 nM), choline oxidase (0.1 U/ml), HRP (100 U/ml), amplex red (50 μM) and LPC 18:1 (10 μM). Compounds of the invention were prepared as 10 point serial dilutions from 1 μM in duplicate and pre-incubated with ATX at 37° C. for 20 minutes prior to the addition of remaining reagents. The liberated choline was measured from changes in fluorescence intensity (λex 530 nm, λem 590 nm) of the product resurofin at 37° C. every 2 minutes over a 40-minute period. ATX activity was measured as a slope of the linear portion of the progress curve, typically between 14 to 24 minutes.
Data analysis—Slope data was exported to Graphpad prism (Graphpad software, San Diego, Calif.) where data was fitted to equation 1. Y=Bottom+(Top-Bottom)/(1+10^((Log IC50−X)*HillSlope)) Equation 1: […]

SMILES | IC50 [nM]
Cc1nnn(Cc2cc(F)ccc2/C=C/C(=O)N2CCC(Cc3nnc(C)o3)CC2)n1 [Example 41, (E)-3-(4-Fluoro-2-((5-methyl-2H-tetrazol-2-yl)methyl)phenyl)-1-(4-((5-methyl-1,3,4-oxadiazol-2-yl)methyl)piperidin-1-yl)prop-2-en-1-one] | 654
Cc1nnn(Cc2cc(F)c(F)cc2/C=C/C(=O)N2CCC(Cc3nnc(C)o3)CC2)n1 [Example 42, (E)-3-(4,5-Difluoro-2-((5-methyl-2H-tetrazol-2-yl)methyl)phenyl)-1-(4-((5-methyl-1,3,4-oxadiazol-2-yl)methyl)piperidin-1-yl)prop-2-en-1-one] | 436
Cc1nnn(Cc2ccc(Cl)cc2/C=C/C(=O)N2CCC(Cc3nnc(C)o3)CC2)n1 [Example 43, (E)-3-(5-Chloro-2-((5-methyl-2H-tetrazol-2-yl)methyl)phenyl)-1-(4-((5-methyl-1,3,4-oxadiazol-2-yl)methyl)piperidin-1-yl)prop-2-en-1-one] | 2370
Cc1nnn(Cc2cccc(F)c2/C=C/C(=O)N2CCC(Cc3nnc(C)o3)CC2)n1 [Example 44, (E)-3-(2-Fluoro-6-((5-methyl-2H-tetrazol-2-yl)methyl)phenyl)-1-(4-((5-methyl-1,3,4-oxadiazol-2-yl)methyl)piperidin-1-yl)prop-2-en-1-one] | 535
Cc1cnc(Cc2cc(Cl)ccc2/C=C/C(=O)N2CCC(Cc3nnc(C)o3)CC2)o1 [Example 45, (E)-3-(4-Chloro-2-((5-methyloxazol-2-yl)methyl)phenyl)-1-(4-((5-methyl-1,3,4-oxadiazol-2-yl)methyl)piperidin-1-yl)prop-2-en-1-one] | 644
Cc1nnn(Cc2cccc(Cl)c2/C=C/C(=O)N2CCC(Cc3nnc(C)o3)CC2)n1 [Example 46, (E)-3-(2-Chloro-6-((5-methyl-2H-tetrazol-2-yl)methyl)phenyl)-1-(4-((5-methyl-1,3,4-oxadiazol-2-yl)methyl)piperidin-1-yl)prop-2-en-1-one] | 204
Cc1nnn(Cc2cc(Cl)ccc2COC(=O)N2CCC(c3nnc(C)o3)CC2)n1 [Example 47, 4-Chloro-2-((5-methyl-2H-tetrazol-2-yl)methyl)benzyl 4-(5-methyl-1,3,4-oxadiazol-2-yl)piperidine-1-carboxylate] | 442
Cc1nnn(Cc2cc(Cl)ccc2COC(=O)N2CCC(c3ncc(C)o3)CC2)n1 [Example 48, 4-Chloro-2-((5-methyl-2H-tetrazol-2-yl)methyl)benzyl 4-(5-methyloxazol-2-yl)piperidine-1-carboxylate] | 70
Cc1nnn(Cc2cc(Cl)ccc2/C=C/C(=O)N2CCN(c3ncccn3)CC2)n1 [Example 49.1, (E)-3-(4-Chloro-2-((5-methyl-2H-tetrazol-2-yl)methyl)phenyl)-1-(4-(pyrimidin-2-yl)piperazin-1-yl)prop-2-en-1-one] | 20
Cc1nnn(Cc2cc(Cl)ccc2/C=C/C(=O)N2CC(S(C)(=O)=O)C2)n1 [Example 49.2, (E)-3-(4-Chloro-2-((5-methyl-2H-tetrazol-2-yl)methyl)phenyl)-1-(3-(methylsulfonyl)azetidin-1-yl)prop-2-en-1-one] | 477
Cc1nnn(Cc2cc(Cl)ccc2/C=C/C(=O)N2CCCC[C@H]2C)n1 [Example 49.14, (R,E)-3-(4-Chloro-2-((5-methyl-2H-tetrazol-2-yl)methyl)phenyl)-1-(2-methylpiperidin-1-yl)prop-2-en-1-one] | 85
Cc1nnn(Cc2cc(Cl)ccc2/C=C/C(=O)N2CCCC(c3nncn3C)C2)n1 (stereo not drawn) [Example 49.16, (E)-3-(4-Chloro-2-((5-methyl-2H-tetrazol-2-yl)methyl)phenyl)-1-(3-(4-methyl-4H-1,2,4-triazol-3-yl)piperidin-1-yl)prop-2-en-1-one] | 1060
Cc1nnn(Cc2cc(Cl)ccc2/C=C/C(=O)N2CC[C@H](NC(=O)C(F)(F)F)C2)n1 [Example 49.18, (S,E)-N-(1-(3-(4-Chloro-2-((5-methyl-2H-tetrazol-2-yl)methyl)phenyl)acryloyl)pyrrolidin-3-yl)-2,2,2-trifluoroacetamide] | 130
Cc1nnn(Cc2cc(Cl)ccc2/C=C/C(=O)N2CCN(c3ccn(C)n3)C[C@H]2C)n1 [Example 49.21, (R,E)-3-(4-Chloro-2-((5-methyl-2H-tetrazol-2-yl)methyl)phenyl)-1-(2-methyl-4-(1-methyl-1H-pyrazol-3-yl)piperazin-1-yl)prop-2-en-1-one] | 16
COC(=O)C1COCCN1C(=O)/C=C/c1ccc(Cl)cc1Cn1nnc(C)n1 (stereo not drawn) [Example 49.23, (E)-Methyl 4-(3-(4-Chloro-2-((5-methyl-2H-tetrazol-2-yl)methyl)phenyl)acryloyl)morpholine-3-carboxylate] | 78

Continued, values first:

IC50 [nM] | SMILES
129 | Cc1nnn(Cc2cc(Cl)ccc2/C=C/C(=O)N2CCC(N3CCNC3=O)CC2)n1 [Example 49.3, (E)-1-(1-(3-(4-Chloro-2-((5-methyl-2H-tetrazol-2-yl)methyl)phenyl)acryloyl)piperidin-4-yl)imidazolidin-2-one]
320 | Cc1nnn(Cc2cc(Cl)ccc2/C=C/C(=O)N2CCC(F)C2)n1 (stereo not drawn) [Example 49.5, (E)-3-(4-Chloro-2-((5-methyl-2H-tetrazol-2-yl)methyl)phenyl)-1-(3-fluoropyrrolidin-1-yl)prop-2-en-1-one]
110 | Cc1nnn(Cc2cc(Cl)ccc2/C=C/C(=O)N2CCC(CCO)CC2)n1 [Example 49.6, (E)-3-(4-Chloro-2-((5-methyl-2H-tetrazol-2-yl)methyl)phenyl)-1-(4-(2-hydroxyethyl)piperidin-1-yl)prop-2-en-1-one]
151 | Cc1nnn(Cc2cc(Cl)ccc2/C=C/C(=O)N2CCCC(O)C2)n1 (stereo not drawn) [Example 49.7, (E)-3-(4-Chloro-2-((5-methyl-2H-tetrazol-2-yl)methyl)phenyl)-1-(3-hydroxypiperidin-1-yl)prop-2-en-1-one]
354 | Cc1nnn(Cc2cc(Cl)ccc2/C=C/C(=O)N2CCCC(C(N)=O)C2)n1 (stereo not drawn) [Example 49.8, (E)-1-(3-(4-Chloro-2-((5-methyl-2H-tetrazol-2-yl)methyl)phenyl)acryloyl)piperidine-3-carboxamide]
5.9 | CCOC(=O)C1CCN(C(=O)/C=C/c2ccc(Cl)cc2Cn2nnc(C)n2)CC1 [Example 49.9, (E)-ethyl 1-(3-(4-Chloro-2-((5-methyl-2H-tetrazol-2-yl)methyl)phenyl)acryloyl)piperidine-4-carboxylate]
24 | Cc1nnn(Cc2cc(Cl)ccc2/C=C/C(=O)N2CCC(OCC(=O)N3CCCCC3)CC2)n1 [Example 49.10, (E)-3-(4-Chloro-2-((5-methyl-2H-tetrazol-2-yl)methyl)phenyl)-1-(4-(2-oxo-2-(piperidin-1-yl)ethoxy)piperidin-1-yl)prop-2-en-1-one]
14 | Cc1nnn(Cc2cc(Cl)ccc2/C=C/C(=O)N2CCC(Cn3cccn3)CC2)n1 [Example 49.11, (E)-1-(4-((1H-Pyrazol-1-yl)methyl)piperidin-1-yl)-3-(4-chloro-2-((5-methyl-2H-tetrazol-2-yl)methyl)phenyl)prop-2-en-1-one]
49 | Cc1nnn(Cc2cc(Cl)ccc2/C=C/C(=O)N2CCC(C(F)(F)F)CC2)n1 [Example 49.12, (E)-3-(4-Chloro-2-((5-methyl-2H-tetrazol-2-yl)methyl)phenyl)-1-(4-(trifluoromethyl)piperidin-1-yl)prop-2-en-1-one]
17 | Cc1nnn(Cc2cc(Cl)ccc2/C=C/C(=O)N2CCC(Oc3ccccc3C(=O)N(C)C)CC2)n1 [Example 49.13, (E)-2-((1-(3-(4-Chloro-2-((5-methyl-2H-tetrazol-2-yl)methyl)phenyl)acryloyl)piperidin-4-yl)oxy)-N,N-dimethyl benzamide]
127 | CC(=O)C1CCCN(C(=O)/C=C/c2ccc(Cl)cc2Cn2nnc(C)n2)C1 (stereo not drawn) [Example 49.15, (E)-1-(3-Acetylpiperidin-1-yl)-3-(4-chloro-2-((5-methyl-2H-tetrazol-2-yl)methyl)phenyl)prop-2-en-1-one]
222 | COCC1CCCN(C(=O)/C=C/c2ccc(Cl)cc2Cn2nnc(C)n2)C1 (stereo not drawn) [Example 49.17, (E)-3-(4-Chloro-2-((5-methyl-2H-tetrazol-2-yl)methyl)phenyl)-1-(3-(methoxymethyl)piperidin-1-yl)prop-2-en-1-one]
176 | CNC(=O)COC1CCN(C(=O)/C=C/c2ccc(Cl)cc2Cn2nnc(C)n2)CC1 [Example 49.19, (E)-2-((1-(3-(4-Chloro-2-((5-methyl-2H-tetrazol-2-yl)methyl)phenyl)acryloyl)piperidin-4-yl)oxy)-N-methylacetamide]
110 | Cc1nnn(Cc2cc(Cl)ccc2/C=C/C(=O)N2CCN(C(=O)c3ccco3)CC2)n1 [Example 49.20, (E)-3-(4-Chloro-2-((5-methyl-2H-tetrazol-2-yl)methyl)phenyl)-1-(4-(furan-2-carbonyl)piperazin-1-yl)prop-2-en-1-one]
110 | CCNC(=O)COC1CCCN(C(=O)/C=C/c2ccc(Cl)cc2Cn2nnc(C)n2)C1 (stereo not drawn) [Example 49.22, (E)-2-((1-(3-(4-Chloro-2-((5-methyl-2H-tetrazol-2-yl)methyl)phenyl)acryloyl)piperidin-3-yl)oxy)-N-ethylacetamide]
